US7850948B2, “Radiohalogenated benzamide derivatives and their use in tumor diagnosis and tumor therapy” (Bayer Schering Pharma AG, priority 2004, dated 2010)

Assays:
[1] = test system: thyroid gland; assay: Thyroid gland accumulation as indication of dehalogenation in vivo
Description: Another drawback of the most similar compounds of the prior art is that the compounds of Eisenhut et al. dehalogenate more quickly in the body than the compounds according to the invention.
The thyroid gland accumulation of BA40 and BA42, an indication of dehalogenation in vivo, is increased by a factor of 10-15 compared to the compounds according to the invention.

[2] = test system: B16/F1 tumor-bearing C57BL6 mice; assay: Tissue concentration of radioiodinated benzamides in the C57BL6-B16/F1 mouse model (organ distribution and tumor accumulation); format: in vivo; conditions: for Blood tissue concentration / Liver tissue concentration / Tumor tissue concentration: n = 3
Protocol: (§1) After synthesis and purification, the compounds according to the invention are dissolved in a physiologically compatible medium and kept ready for injection. Organ distribution and tumor accumulation experiments were performed in B16/F1 tumor-bearing C57BL6 mice, and SK-Mel-3 tumor-bearing NMRI nude mice (15-22 g).
(§2) Murine B16/F1 and human SK-Mel-3 cells were ordered from ATCC. B16/F1 cells (0.5×10^6) are washed in buffer (preferably phosphate buffer), suspended and inoculated subcutaneously into C57BL6 mice, 100 μl, in the right rear flanks. Sk-Mel-3 cells (5×10^6) are washed in buffer and then inoculated subcutaneously into NMRI mice in Matrigel® (100 μl) in the right side of the trunk. After about 8-10 days, the animals develop palpable tumors with a surface area of about 30 mm^2. The distribution studies are performed after intravenous caudal vein administration of 3.7-5.5 MBq of the substances according to the invention in 50-100 μl of volume. At certain times after administration, the animals are sacrificed, organs and tumors are removed, optionally dabbed dry, weighed and measured for radioactive content (γ measurement) in a calibrator with the corresponding isotope standard. The results are depicted as % of the injected dose (ID)/g of tissue (Table 1).

[3] = test system: SK-Mel-3 tumor-bearing NMRI nude mice; assay: Tumor accumulation in the NMRI-SK-Me13 human xenograft mouse model; format: in vivo; conditions: after 96 hours
Protocol: as §1, §2

[4] = Lipophilicity; format: physicochemical; conditions: in words
[5] = 1 hour after intravenous administration
[6] = 5 hours after intravenous administration
[7] = 24 hours after intravenous administration
[8] = 6 h after intravenous administration

| Compound | Stability of the bonded radioisotope I-131 (dehalogenation in vivo) [1] | Blood tissue concentration [2, 5] | Liver tissue concentration [2, 5] | Tumor tissue concentration [2, 5] | Blood tissue concentration [2, 6] | Liver tissue concentration [2, 6] | Tumor tissue concentration [2, 6] | Blood tissue concentration [2, 7] | Liver tissue concentration [2, 7] | Tumor tissue concentration [2, 7] | Liver concentration compared with BA42 ([2]; after 6 and 24 hours, in words) | Blood accumulation compared with the closest prior art (compound of Eisenhut et al. with NH-Ac) ([2]; in words) | Retardation in the melanoma tissue ([2]; in words) | Blood tissue concentration [2, 8] | Liver tissue concentration [2, 8] | Tumor tissue concentration [2, 8] | other results |
| --- | --- | --- | --- | --- | --- | --- | --- | --- | --- | --- | --- | --- | --- | --- | --- | --- | --- |
| CCN(CC)CCNC(=O)c1cc(I)c(NC(=O)c2ccc3c(c2)OCO3)cc1OC [BA52, Benzo[1,3]dioxole-5-carboxylic acid [4-(2-diethylamino-ethylcarbamoyl)-2-iodo-5-methoxy-phenyl]-amide] | more stable | 1.46 % Injected Dose (ID)/g of Tissue | 19.11 % Injected Dose (ID)/g of Tissue | 14.83 % Injected Dose (ID)/g of Tissue | 0.69 % Injected Dose (ID)/g of Tissue | 6.53 % Injected Dose (ID)/g of Tissue | 22.69 % Injected Dose (ID)/g of Tissue | 0.05 % Injected Dose (ID)/g of Tissue | 0.49 % Injected Dose (ID)/g of Tissue | 18.82 % Injected Dose (ID)/g of Tissue | considerably lower | considerably less | extended retardation |  |  |  | Blood accumulation compared with BA42 ([2]; after 6 and 24 hours, in words): considerably lower; Retention in the tumor compared with BA40 and BA42 ([2]; in words): considerably longer; Tumor concentration compared with BA40 and BA42 ([2]; in words): comparable; Accumulation in the tumor [3]: at least 13 % of the injected dose per gram tissue; Lipophilicity compared with the prior art compounds [4]: higher lipophilicity |
| CCN(CC)CCNC(=O)c1cc(I)c(NC(=O)c2ccccc2)cc1OC [BA91] | more stable | 1.06 % Injected Dose (ID)/g of Tissue | 12.68 % Injected Dose (ID)/g of Tissue | 9.68 % Injected Dose (ID)/g of Tissue |  |  |  | 0.22 % Injected Dose (ID)/g of Tissue | 0.76 % Injected Dose (ID)/g of Tissue | 13.83 % Injected Dose (ID)/g of Tissue | considerably lower | considerably less |  | 0.97 % Injected Dose (ID)/g of Tissue | 3.63 % Injected Dose (ID)/g of Tissue | 16.72 % Injected Dose (ID)/g of Tissue |  |
| CCN(CC)CCNC(=O)c1cc(I)c(NC(=O)c2ccc(Cl)cc2)cc1OC [BA93] | more stable | 1.30 % Injected Dose (ID)/g of Tissue | 13.71 % Injected Dose (ID)/g of Tissue | 10.73 % Injected Dose (ID)/g of Tissue |  |  |  | 0.22 % Injected Dose (ID)/g of Tissue | 1.18 % Injected Dose (ID)/g of Tissue | 23.46 % Injected Dose (ID)/g of Tissue | considerably lower | considerably less | extended retardation | 0.82 % Injected Dose (ID)/g of Tissue | 5.81 % Injected Dose (ID)/g of Tissue | 21.67 % Injected Dose (ID)/g of Tissue |  |
| CCN(CC)CCNC(=O)c1cc(I)c(NC(=O)c2ccc(OC)cc2)cc1OC [BA95] | more stable | 1.26 % Injected Dose (ID)/g of Tissue | 16.35 % Injected Dose (ID)/g of Tissue | 17.45 % Injected Dose (ID)/g of Tissue | 0.76 % Injected Dose (ID)/g of Tissue | 8.54 % Injected Dose (ID)/g of Tissue | 14.83 % Injected Dose (ID)/g of Tissue | 0.07 % Injected Dose (ID)/g of Tissue | 0.75 % Injected Dose (ID)/g of Tissue | 29.69 % Injected Dose (ID)/g of Tissue | considerably lower | considerably less | extended retardation |  |  |  |  |
| CCN(CC)CCNC(=O)c1cc(I)c(NC(=O)c2ccc(F)cc2)cc1OC [BA100] | more stable | 1.21 % Injected Dose (ID)/g of Tissue | 15.49 % Injected Dose (ID)/g of Tissue | 25.51 % Injected Dose (ID)/g of Tissue |  |  |  | 0.07 % Injected Dose (ID)/g of Tissue | 0.76 % Injected Dose (ID)/g of Tissue | 31.66 % Injected Dose (ID)/g of Tissue | considerably lower | considerably less | extended retardation | 0.70 % Injected Dose (ID)/g of Tissue | 4.64 % Injected Dose (ID)/g of Tissue | 28.10 % Injected Dose (ID)/g of Tissue |  |
